Experimental findings from article PMC9412534, “Diindolylmethane Derivatives: New Selective Blockers for T-Type Calcium Channels” (Membranes, 2022) are described below.

Where two headings read alike, the source gives them in different places.

Assay [1] has as its target T1, human CaV3.1 (Homo sapiens, UniProt O43497).
T1 construct: expressed in transfected cells; host or cells: HEK 293 T cells, transient transfection (FuGENE HD)
Nature of the assay: T-type calcium channel window current FLIPR assay, CaV3.1. It is filed as cell-based. The conditions noted are these: n = 3, read-out: IC50 CaV3.1 (LVA CaVs). Here is the method: (§1) The human embryonic kidney 293 (HEK 293) cell lines (from Emmanuel Bourinet, Montpellier, France) stably expressing CaV3.2 or CaV3.3 were cultured under 5% carbon dioxide at 37 °C in Dulbecco’s Modified Eagle Medium (DMEM) Glutamax (Gibco, Life Technologies, Carlsbad, CA, USA) supplemented with 10% (v/v) fetal bovine serum (FBS), 100 U/mL penicillin, 100 μg/mL streptomycin (Gibco, Life Technologies, Carlsbad, CA, USA), and 750 μg/mL geneticin (G418) (Gibco, Life Technologies). The Chinese Hamster Ovary (CHO) cell lines (Emmanuel Bourinet, Montpellier, France) expressing CaV3.1 were cultured under 5% carbon dioxide at 37 °C in Alpha Minimum Essential Media (MEM) Glutamax (Gibco, Life Technologies), supplemented with 10% (v/v) fetal bovine serum (FBS) and 300 μg/mL geneticin (G418) (Gibco, Life Technologies). The human neuroblastoma SH-SY5Y cells (Victor Diaz, Goettingen, Germany) were cultured under 5% carbon dioxide at 37 °C in RPMI 1640 antibiotic-free medium (Invitrogen, Carlsbad, CA, USA), supplemented with 15% FBS and 2 mM GlutaMAX™ (Invitrogen). D-PBS (Gibco, Life Technologies) was used to wash the cells, and 0.25% Trypsin-EDTA (Gibco, Life Technologies) was used to detach cells from the flask surface. They were split in a ratio of 1:5 (ideally 1000 cells/cm^2) when they reached 70–80% confluence (every 2–3 days). Transiently transfected CaV3.1 HEK293 T cells were used in FLIPR Assays. HEK 293 T cells were cultured under 5% carbon dioxide at 37 °C in DMEM supplemented with 10% (v/v) FBS. D-PBS was used to wash the cells, and 0.25% Trypsin-EDTA was used to detach cells from the flask surface. The cells were split and seeded at 6 million cells per T175 flask, to reach 70–80% confluence after 24 h. The next day, 12 μg DNA of human CaV3.1 was incubated in 900 μL serum-free DMEM with 36 μL FuGENE HD transfection reagent (Promega Corporation, Madison, WI, USA) (1:3 DNA/Fugene ratio) for 20 min, and then the mixture was added into the cell flask slowly, drop by drop. After the transfection, the cells were cultured under 5% carbon dioxide at 37 °C for 24 h and then moved to a 28 °C incubator.
(§2) HEK 293 cells stably expressing CaV3.2 or CaV3.3 were seeded into 384-well black wall clear bottom plates (Corning) at a density of 30,000 cells per well. Transiently transfected CaV3.1HEK293 T cells were seeded into 384-well black wall clear bottom plates at a density of 60,000 cells per well. Once the cells reached 90–95% confluence after 24 h, the media were removed from the wells and replaced with 20 μL of 10% calcium 4 dye (Molecular Devices, Sunnyvale, CA, USA) in HBSS-HEPES (containing 5 mM KCl, 10 mM HEPES, 140 mM NaCl, 10 mM glucose, and 0.5 mM CaCl2, pH 7.4) with 0.1% bovine serum albumin (BSA). The cells were incubated for 30 min at 37 °C in the presence of 5% carbon dioxide. Each well on the reagent plates for the first addition contained 15 μL different concentrations of compounds dissolved in HBSS-HEPES containing 0.1% BSA and <0.5% DMSO and was incubated for 20 min after loaded. Positive and negative controls contained 15 μL of HBSS-HEPES (0.1% BSA) alone. The plates were placed in the FLIPR^TETRA (Molecular Devices, Sunnyvale, CA, USA) programmed to measure maximum fluorescence intensity following a second addition of the agonist 5 mM CaCl2. The fluorescence readings were recorded and converted as described previously, and HBSS-HEPES (0.1% BSA) was used in the second addition as a negative control.

The target in assay [2] is CaV3.3 (Homo sapiens, UniProt Q9P0X4). Nature of the assay: T-type calcium channel window current FLIPR assay, CaV3.3. It is filed as cell-based. As for the experimental part:
as §1, §2

Assay [3] has as its target T2, CaV2.2 (Homo sapiens, UniProt Q00975).
T2 construct: endogenous in cells; host or cells: SH-SY5Y human neuroblastoma cells
Nature of the assay: HVA N-type calcium channel FLIPR assay in SH-SY5Y cells. It is filed as cell-based. The conditions noted are these: 10 µM nifedipine present, n = 3, read-out: IC50 CaV2.2 (HVA CaVs). As for the experimental part:
as §1
SH-SY5Y cells were seeded into 384-well black wall clear bottom plates at a density of 15,000 cells per well, resulting in 90–95% confluence after 24 h. The media were then removed from the wells and replaced with 20 μL of 10% calcium 4 dye (Molecular Devices) in physiological salt solution (PSS) (containing 5.9 mM KCl, 1.4 mM MgCl2, 10 mM HEPES, 1.2 mM NaH2 PO4, 5 mM NaHCO3, 140 mM NaCl, 11.5 mM glucose, and 1.8 mM CaCl2, pH 7.4) with 0.1% BSA. As reported, for N-type calcium channel FLIPR assays the cells were pre-incubated with 10 µM nifedipine added in the dye to ensure full inhibition of L-type calcium responses. For L-type calcium channel FLIPR assays, the cells were pre-incubated with 1 µM CVID added in the dye to ensure full inhibition of N-type calcium responses. Positive control on the first reagent plate contained 15 μL of PSS (0.1% BSA), whereas PSS (0.1% BSA) containing 1 µM CVID and 10 µM nifedipine (final concentration) was used as a negative control. The fluorescence readings were recorded and converted as described previously, and agonist containing 90 mM KCl + 5 mM CaCl2 was used in the second addition.

Assay [4] relates to T-47D cells. Nature of the assay: Cell viability MTT assay, T-47D. Format: cell-based, human. The conditions noted are these: for viability at 50 µM: n = 4; for IC50: n = 3. Here is the method: Human breast cancer cell line MCF-7 and T-47D, lung cancer cell line A549, and colon cancer cell line HT-29 were cultured under 5% carbon dioxide at 37 °C in DMEM Glutamax (Gibco, Life Technologies) supplemented with 10% (v/v) FBS. They were split in a ratio of 1:3–1:6 (ideally 2–4 × 10,000 cells/cm^2) when they reached 70–80% confluence using 0.25% Trypsin-EDTA. For cell viability MTT assay, cells were seeded into 96-well clear bottom culture plates (Corning, Lowell, MA, USA) at a density of 5 × 10^3 cells/well and settled at 37 °C for 24 h.
Seeded cells were treated with various concentrations of compounds for desired time period (24, 48 and 72 h). After the treatments, the media were removed from each well, and replaced with 25 μL of serum-free media and 25 μL of MTT Reagent (cat. no., ab211091; Abcam, Cambridge, MA, USA). The plate was then incubated at 37 °C for 3 h, and 75 μL of MTT Solvent (cat. no., ab211091; Abcam) was added into each well after incubation. The absorbance was evaluated at 590 nm. Cell-wells treated with 0.1% DMSO were used as positive control and no cell-wells were used as background control.
(In general: Tetrazolium assays rely on reduction of a dye to a coloured formazan, in cell work by metabolically active cells.)

[5] abbreviates: FLIPR window current, n = 3, read-out: IC50 CaV3.3 (LVA CaVs).
Where [6] appears, read: FLIPR, one separate experiment in quadruplicate (n = 4), read-out: IC50 of representative concentration-response curve, CaV3.3 window current.
The mark [7] stands for this setting: Homo sapiens, T47D, 72 h treatment.
Where [8] appears, read: Homo sapiens, T47D, 72 h, 72 h treatment.

Chain of CaV3.3 (Q9P0X4 whole entry): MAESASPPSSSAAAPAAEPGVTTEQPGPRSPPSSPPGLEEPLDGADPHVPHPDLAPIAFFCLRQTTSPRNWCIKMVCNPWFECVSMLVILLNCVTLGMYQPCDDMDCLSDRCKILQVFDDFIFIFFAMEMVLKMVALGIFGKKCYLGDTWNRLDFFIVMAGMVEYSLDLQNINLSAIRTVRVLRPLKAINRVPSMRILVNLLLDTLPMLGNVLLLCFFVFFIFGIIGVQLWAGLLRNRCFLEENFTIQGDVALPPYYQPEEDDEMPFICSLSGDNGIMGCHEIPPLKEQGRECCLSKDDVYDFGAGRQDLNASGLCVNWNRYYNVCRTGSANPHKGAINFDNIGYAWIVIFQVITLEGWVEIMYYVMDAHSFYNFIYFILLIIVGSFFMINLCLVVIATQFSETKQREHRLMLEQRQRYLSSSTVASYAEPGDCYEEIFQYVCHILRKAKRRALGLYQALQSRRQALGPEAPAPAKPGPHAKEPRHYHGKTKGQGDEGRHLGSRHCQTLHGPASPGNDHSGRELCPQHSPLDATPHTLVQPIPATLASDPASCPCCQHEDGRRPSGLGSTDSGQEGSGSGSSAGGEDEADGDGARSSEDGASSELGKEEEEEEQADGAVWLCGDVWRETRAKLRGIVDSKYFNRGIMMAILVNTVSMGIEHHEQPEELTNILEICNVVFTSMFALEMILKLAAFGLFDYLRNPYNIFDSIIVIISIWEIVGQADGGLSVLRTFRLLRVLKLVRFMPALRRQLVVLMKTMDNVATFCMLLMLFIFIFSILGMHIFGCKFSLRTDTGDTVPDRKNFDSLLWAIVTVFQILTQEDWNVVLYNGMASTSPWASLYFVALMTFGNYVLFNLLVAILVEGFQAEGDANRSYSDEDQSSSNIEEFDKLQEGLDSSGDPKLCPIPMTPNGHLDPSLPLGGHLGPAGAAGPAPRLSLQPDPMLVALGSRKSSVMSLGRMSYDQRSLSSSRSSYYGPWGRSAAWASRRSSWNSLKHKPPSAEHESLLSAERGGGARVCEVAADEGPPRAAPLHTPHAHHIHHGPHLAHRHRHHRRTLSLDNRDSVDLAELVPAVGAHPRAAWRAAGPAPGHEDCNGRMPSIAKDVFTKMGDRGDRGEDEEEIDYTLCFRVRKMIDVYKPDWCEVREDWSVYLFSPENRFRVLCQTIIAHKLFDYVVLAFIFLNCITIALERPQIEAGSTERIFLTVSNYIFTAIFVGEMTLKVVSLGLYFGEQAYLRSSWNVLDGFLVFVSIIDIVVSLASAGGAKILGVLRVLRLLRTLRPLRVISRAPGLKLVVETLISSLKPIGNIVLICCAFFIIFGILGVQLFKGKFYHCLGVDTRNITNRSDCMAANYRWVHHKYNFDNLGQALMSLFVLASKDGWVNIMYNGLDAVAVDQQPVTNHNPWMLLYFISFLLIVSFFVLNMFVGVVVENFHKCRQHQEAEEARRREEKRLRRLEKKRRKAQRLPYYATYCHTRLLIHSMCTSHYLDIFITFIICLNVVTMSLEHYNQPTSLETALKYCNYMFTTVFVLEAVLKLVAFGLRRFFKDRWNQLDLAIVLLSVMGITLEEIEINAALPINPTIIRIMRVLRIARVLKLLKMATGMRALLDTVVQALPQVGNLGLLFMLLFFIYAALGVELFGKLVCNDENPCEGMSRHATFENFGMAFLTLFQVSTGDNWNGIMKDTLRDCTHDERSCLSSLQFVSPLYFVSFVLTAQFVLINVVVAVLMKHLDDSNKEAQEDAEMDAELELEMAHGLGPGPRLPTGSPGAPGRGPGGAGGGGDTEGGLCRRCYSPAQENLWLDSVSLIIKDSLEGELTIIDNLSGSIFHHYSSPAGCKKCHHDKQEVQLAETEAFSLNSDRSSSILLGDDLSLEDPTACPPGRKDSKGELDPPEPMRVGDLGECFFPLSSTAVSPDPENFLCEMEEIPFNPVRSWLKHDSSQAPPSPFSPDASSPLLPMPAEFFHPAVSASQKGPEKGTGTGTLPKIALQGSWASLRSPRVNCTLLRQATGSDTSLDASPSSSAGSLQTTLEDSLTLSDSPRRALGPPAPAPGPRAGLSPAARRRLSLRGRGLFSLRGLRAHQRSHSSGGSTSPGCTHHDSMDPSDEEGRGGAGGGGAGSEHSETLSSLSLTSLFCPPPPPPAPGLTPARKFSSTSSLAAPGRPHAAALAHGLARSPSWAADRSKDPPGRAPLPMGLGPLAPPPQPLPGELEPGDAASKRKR
T1 sequence (O43497 whole entry): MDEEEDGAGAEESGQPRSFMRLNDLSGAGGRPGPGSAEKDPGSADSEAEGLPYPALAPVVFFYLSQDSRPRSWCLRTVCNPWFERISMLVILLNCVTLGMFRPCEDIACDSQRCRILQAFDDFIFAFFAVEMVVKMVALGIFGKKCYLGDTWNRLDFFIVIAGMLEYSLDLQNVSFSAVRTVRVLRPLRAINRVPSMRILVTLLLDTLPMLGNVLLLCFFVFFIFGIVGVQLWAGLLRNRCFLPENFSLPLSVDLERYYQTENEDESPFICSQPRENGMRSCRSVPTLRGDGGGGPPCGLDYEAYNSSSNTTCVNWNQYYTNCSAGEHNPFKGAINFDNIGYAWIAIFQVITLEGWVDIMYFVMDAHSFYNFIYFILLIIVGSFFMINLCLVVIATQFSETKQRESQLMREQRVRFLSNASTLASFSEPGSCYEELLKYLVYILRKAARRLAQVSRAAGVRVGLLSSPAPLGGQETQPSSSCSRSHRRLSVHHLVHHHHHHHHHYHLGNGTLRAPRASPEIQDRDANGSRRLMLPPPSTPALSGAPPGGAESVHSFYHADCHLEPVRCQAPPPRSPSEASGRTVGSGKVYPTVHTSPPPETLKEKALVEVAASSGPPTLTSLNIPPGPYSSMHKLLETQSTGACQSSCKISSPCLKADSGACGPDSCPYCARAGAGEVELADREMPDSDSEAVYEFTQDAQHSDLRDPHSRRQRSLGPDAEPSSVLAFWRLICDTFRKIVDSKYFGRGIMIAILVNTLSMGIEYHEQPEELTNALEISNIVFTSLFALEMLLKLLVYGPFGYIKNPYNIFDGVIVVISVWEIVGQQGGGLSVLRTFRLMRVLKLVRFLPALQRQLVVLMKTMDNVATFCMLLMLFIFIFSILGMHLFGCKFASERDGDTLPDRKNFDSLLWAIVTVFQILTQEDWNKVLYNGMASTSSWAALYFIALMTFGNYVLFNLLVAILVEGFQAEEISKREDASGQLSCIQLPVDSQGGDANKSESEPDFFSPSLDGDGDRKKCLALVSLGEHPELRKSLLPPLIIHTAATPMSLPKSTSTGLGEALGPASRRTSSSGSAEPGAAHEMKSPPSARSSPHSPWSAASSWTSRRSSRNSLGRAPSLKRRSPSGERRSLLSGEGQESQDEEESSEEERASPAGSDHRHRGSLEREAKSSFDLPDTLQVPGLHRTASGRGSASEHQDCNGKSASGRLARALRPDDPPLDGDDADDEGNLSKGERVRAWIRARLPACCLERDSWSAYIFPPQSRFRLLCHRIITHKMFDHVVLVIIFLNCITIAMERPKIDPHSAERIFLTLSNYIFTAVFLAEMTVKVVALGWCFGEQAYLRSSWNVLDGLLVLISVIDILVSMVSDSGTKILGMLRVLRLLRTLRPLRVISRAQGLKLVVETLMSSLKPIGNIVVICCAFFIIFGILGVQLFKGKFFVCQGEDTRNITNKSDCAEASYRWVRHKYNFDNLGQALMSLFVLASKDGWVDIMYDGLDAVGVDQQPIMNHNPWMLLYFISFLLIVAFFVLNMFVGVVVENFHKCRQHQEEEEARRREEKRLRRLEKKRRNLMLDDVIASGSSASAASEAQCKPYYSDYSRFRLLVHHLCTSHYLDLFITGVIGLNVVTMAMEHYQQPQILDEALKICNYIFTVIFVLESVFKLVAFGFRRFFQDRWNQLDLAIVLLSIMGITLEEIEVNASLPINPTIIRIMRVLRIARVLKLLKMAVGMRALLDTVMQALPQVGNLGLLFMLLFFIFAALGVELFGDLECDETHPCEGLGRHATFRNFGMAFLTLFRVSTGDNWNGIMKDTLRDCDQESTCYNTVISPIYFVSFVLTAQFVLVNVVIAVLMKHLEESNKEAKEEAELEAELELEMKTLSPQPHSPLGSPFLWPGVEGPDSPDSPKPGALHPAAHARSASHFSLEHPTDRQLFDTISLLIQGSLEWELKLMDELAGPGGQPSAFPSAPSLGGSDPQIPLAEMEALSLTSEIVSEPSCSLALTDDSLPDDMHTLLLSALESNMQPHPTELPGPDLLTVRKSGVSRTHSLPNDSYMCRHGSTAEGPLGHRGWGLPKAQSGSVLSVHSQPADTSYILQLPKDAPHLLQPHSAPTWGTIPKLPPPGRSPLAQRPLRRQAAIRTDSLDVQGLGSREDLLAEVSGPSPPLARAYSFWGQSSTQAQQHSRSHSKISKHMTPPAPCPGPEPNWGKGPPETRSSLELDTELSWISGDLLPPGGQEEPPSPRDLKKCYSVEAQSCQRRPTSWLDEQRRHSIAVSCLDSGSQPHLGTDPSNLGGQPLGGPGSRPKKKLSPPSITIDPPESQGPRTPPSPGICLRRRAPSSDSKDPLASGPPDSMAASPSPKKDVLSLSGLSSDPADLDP

What is called viability is a read-out of living cells in per cent, often relative to untreated cells. In the case of `O=C(c1c[nH]c2ccccc12)c1c[nH]c2ccccc12` [DIM-one, 3,3′-diindolylmethanone], the IC50 in assay [1] was 158 ± 11.1 µM; in assay [2] (setting [5]), 9.07 ± 0.69 µM; in assay [2] (setting [6]) it was 8.18 µM; in assay [3], 119 ± 6.51 µM; in assay [4] (setting [8]), 44 µM. The “reduced potency for CaV3.3 window current compared to DIM” value in assay [2] (FLIPR) stood at 4.3 fold. This compound came in with a viability at 50 µM in assay [4] (setting [7]) of 50.6 ± 2.08%.

Regarding `O=C(c1c[nH]c2cc(Br)ccc12)c1c[nH]c2cc(Br)ccc12` [IV], the IC50 in assay [1] was 53.5 ± 2 µM; in assay [2] (setting [5]) it was 62.5 ± 4.1 µM; in assay [3], over 200 µM; in assay [4] (72 h treatment), 4.1 µM; in assay [4] (Homo sapiens, T47D, 24 h, 24 h treatment), 13.8 µM; in assay [4] (Homo sapiens, T47D, 48 h, 48 h treatment), 3.9 µM. The same compound had an IC50 in assay [4] (setting [8]) of 4 µM. The compound also displayed a viability at 50 µM in assay [4] (setting [7]) of 6.14 ± 0.55%.

`O=C(c1cn(Cc2ccccc2)c2ccccc12)c1cn(Cc2ccccc2)c2ccccc12` [IX, bis(1-benzyl-1H-indol-3-yl)methanone]: the IC50 in assay [1] was found to be 35.1 ± 1.05 µM; in assay [2] (IC50 CaV3.3 (LVA CaVs), FLIPR window current, n = 3), 6.68 ± 0.79 µM; in assay [2] (IC50 of representative concentration-response curve, CaV3.3 window current, FLIPR, one separate experiment in quadruplicate (n = 4)), 5.27 µM; in assay [3], 82 ± 5.3 µM. For the same compound, the “less active at HVA CaVs than at CaV3.2 and CaV3.3” value in assay [2] (FLIPR) was over 7 fold.

As to `c1ccc2c(Cc3c[nH]c4ccccc34)c[nH]c2c1` [DIM, 3,3′-diindolylmethane, reference compound], the IC50 in assay [1] is over 200 µM; in assay [2] (setting [5]), 2.09 ± 0.43 µM; in assay [2] (setting [6]), 2.77 µM; in assay [3] it was 56.7 ± 2.61 µM; in assay [4] (setting [8]), 36 µM. Moreover, the “CaV3.3 window current potency better than at CaV3.1 and CaV3.2” value in assay [2] (FLIPR) is listed as ~ 25 fold. The “CaV3.3 window current potency better than potency at HVA CaVs” value in assay [2] (FLIPR) is listed as over 27 fold. In assay [4] (setting [7]), this compound had a viability at 50 µM of 18.9 ± 1.15%.
